Measurements from patent US20120035201A1, “SPIROHETEROCYCLIC PYRROLIDINE DIONE DERIVATIVES USED AS PESTICIDES” (SYNGENTA CROP PROTECTION LLC, priority 2009, published 2012).
Each block holds one compound with its values, some of them ahead of it.

How the values were obtained:
[1] = system: Myzus persicae (green peach aphid); experiment: Example B2: activity against Myzus persicae, pea seedling roots in test solution (systemic/feeding, curative); details: 144 h, read-out: activity (mortality)
[2] = system: Thrips tabaci (onion thrips); experiment: Example B4: activity against Thrips tabaci, sprayed sunflower leaf discs (feeding/residual contact, preventive); details: foliar, 144 h, read-out: activity (mortality)
[3] = system: Myzus persicae (green peach aphid); experiment: Example B1: activity against Myzus persicae, sprayed sunflower leaf discs (feeding/residual contact, preventive); details: foliar, 144 h, read-out: activity (mortality)
[4] = system: Diabrotica balteata (corn root worm); experiment: Example B5: activity against Diabrotica balteata, larvicide on artificial diet in microtiter plate; type: in vivo; details: 120 h, L2 larvae, 5 days, read-out: activity (larval mortality, antifeedant, growth regulation)
Method: Activity Against Diabrotica balteata (Corn Root Worm)
(Larvicide, Feeding/Residual Contact Activity, Preventive)
24-well microtiter plate (MTP) with artificial diet is treated with test solutions by pipetting. After drying, the MTP's are infested with larvae (L2)(6-10 per well). After an incubation period of 5 days, samples are checked for larval mortality, antifeedant and growth regulation.

[5] = system: Tetranychus urticae (two-spotted spider mite); experiment: Example B3: activity against Tetranychus urticae, sprayed bean leaf discs (feeding/residual contact, preventive); type: in vivo; details: foliar, 192 h, mixed population, 8 days, read-out: activity (egg, larval and adult mortality)
From the text: Activity Against Tetranychus urticae (Two-Spotted Spider Mite)
(Mixed Population, Feeding/Residual Contact Activity, Preventive)
Bean leaf discs on agar in 24-well microtiter plates are sprayed with test solutions. […] 8 days later, discs are checked for egg mortality, larval mortality, and adult mortality. In this test, compounds listed in the Table A above show good activity. In particular compounds A1, A4, A5, A7, A8, A9, A10, A11, A12, A13 and A14 show an activity of over 80% at a concentration of 400 ppm.

[6] = system: Aonidiella Aurantii (red scale); experiment: Example B10: activity against Aonidiella aurantii, dipped potato tubers; type: in vivo; details: 200 ppm, 6-8 weeks
From the text: Activity Against Aonidiella Aurantii (Red Scale)
Treatment of potato tubers by dipping the in the test solution. One day later, tubers are infested with about 50 crawlers. 6-8 weeks after application samples are checked for the number of crawlers of the next generation (compared to the non treated samples). In this test, compounds listed in the Table A above show good activity.

[7] = system: Aphis gossypii (cotton aphid); experiment: Example B11: activity against Aphis gossypii, pea seedling roots in test solution (systemic/feeding); type: in vivo; details: 144 h, roots of infested pea seedlings in test solution, 6 days
From the text: Activity Against Aphis gossypii (Cotton Aphid)
(§1) (Mixed Population, Systemic/Feeding)
6 days later, samples are checked for mortality. In this test, compounds listed in Table A above show good activity.

[8] = system: Bemisia tabaci (tobacco white fly); experiment: Example B7: activity against Bemisia tabaci, larvicide on bean plants (contact/feeding); type: in vivo; details: 200 ppm; bean plants with N-2 nymphs sprayed, three weeks
Method: Activity Against Bemisia tabaci (Tobacco White Fly)
(Larvicide, Contact/Feeding)
Bean plants are infested with 20-30 adults that were removed after a 4 day egg-laying period. After another 7 days, bean plants with hatched nymphs (N−2) are treated (2 replicates) with the test solutions in a spray chamber. Three weeks later, samples are checked for number of emerged adults. Efficacy was calculeted by comparing number of emerged adults in treated and non treated samples.

[9] = system: cowpea aphid (Aphis craccivora); experiment: Example B13: insecticide seed treatment of sugarbeet seeds, infestation with cowpea aphid; type: in vivo; details: 0.1 mg a.i./seed, infested after 14 days, counted 7 days later
Method: Insecticide Seed Treatment
Sugarbeet seeds are treated with test compounds at various rates (mg a.i./seed). The seeds are sown into pots filled with soil. After placing the seeds on the soil surface they are further covered with soil. Before and during the bioassays, the plants are grown under optimal greenhouse conditions. After 14 days, the plants are infested with cowpea aphid (Aphis craccivora) by placing one infested pea seedling containing approximately 150 aphids of a population of mixed developmental stages onto each plant. Seven days after infestation, the number of aphids is counted per plant. Each treatment group is replicated 10 times. Each replicate contains 1 plant.

[10] = system: Nilaparvata lugens (brown rice planthopper); experiment: Example B8: activity against Nilaparvata lugens, larvicide on rice seedlings (feeding/contact); type: in vivo; details: sprayed rice seedlings, N3 nymphs, 6-12 days, read-out: activity (mortality, growth regulation, effects on F1 generation)
Method: Activity Against Nilaparvata lugens (Brown Rice Planthopper)
(Larvicide, Feeding/Contact)
Rice seedlings are treated with the diluted test solutions in a spray chamber. After drying, they are infested with 20 N3 nymphs (2 replicates). 6-12 days after the treatment samples are checked for mortality, growth regulation, and effects on the F1 generation. In this test, compounds listed in the Table A above show good activity. For example compounds A1, A2, A4, A7, A8, A9, A13 and A14 show an activity of over 80% at a concentration of 400 ppm.

pepper plants = experiment: Example B12: plant damage evaluation (phytotoxicity) on sprayed pepper plants; details: in vivo, 6 days, 200 ppm
[11] = system: Aphis Craccivora (cowpea aphid); experiment: Example B9: translaminar activity against Aphis craccivora on French bean leaves; type: in vivo; details: 120 h, upper leaf side painted, aphids on lower side, 5 days
Method: Translaminar Activity Against Aphis Craccivora (Cowpea Aphid)
French bean leaves (Phaseolus vulgaris) are infested with about 20 mixed age individuals on the lower leaf side using clip cages. 1 day after the infestation, the upper side of the leaves is treated with the test solution by painting. 5 days later, samples are checked for mortality.

[12] = system: Myzus persicae (green peach aphid); experiment: Example B12: activity against Myzus persicae on sprayed pepper plants (feeding/residual contact); type: in vivo; details: 144 h, 6 days
[13] = system: Aphis Craccivora (cowpea aphid); experiment: Example B15: activity against Aphis craccivora, pea seedling roots in test solution (systemic/feeding); type: in vivo; details: 144 h, roots of infested pea seedlings in test solution, 6 days
From the text: Activity Against Aphis Craccivora (Cowpea Aphid)
as §1
6 days later, samples are checked for mortality. In this test, compounds listed in Table A above show good activity. For example compounds A8, A9, A13 and A14 show an activity of over 80% at a concentration of 25 ppm.

SMILES: CON1CCC2(CC1)NC(=O)C(Cl)(c1cc(Br)c(C)cc1C)C2=O (stereo not drawn) [A15]
mortality at 400 ppm [1]: > 80%
mortality at 400 ppm [2]: > 80%
mortality at 400 ppm [3]: > 80%

SMILES: CON1CCC2(CC1)NC(=O)C(Cl)(c1cc(C)c(Cl)cc1C)C2=O (stereo not drawn) [A11]
mortality at 400 ppm [4]: > 80%
mortality at 400 ppm [5]: > 80%
mortality at 400 ppm [2]: > 80%
mortality at 400 ppm [3]: > 80%

SMILES: CON1CCC2(CC1)NC(=O)C(Cl)(c1c(Br)cc(C)cc1Br)C2=O (stereo not drawn) [A18]
mortality at 400 ppm [1]: > 80%
mortality at 400 ppm [3]: > 80%

SMILES: CON1CCC2(CC1)NC(=O)C(Cl)(c1c(C)ccc(Cl)c1C)C2=O (stereo not drawn) [A10]
mortality at 400 ppm [5]: > 80%
mortality at 400 ppm [2]: > 80%
mortality at 400 ppm [3]: > 80%

SMILES: CON1CCC2(CC1)NC(=O)C(Cl)(c1cc(C)ccc1C)C2=O (stereo not drawn) [A1, 3-chloro-3-(2,5-dimethyl-phenyl)-8-methoxy-1,8-diaza-spiro[4.5]decane-2,4-dione]
activity (number of crawlers of the next generation vs non treated) [6]: over 80%
mortality at 25 ppm [7]: > 80%
mortality at 400 ppm [4]: > 80%
activity (efficacy, number of emerged adults vs non treated) [8]: over 80%
mortality at 400 ppm [1]: > 80%
efficacy in the reduction of aphids compared to untreated control plants [9]: over 80%
mortality at 400 ppm [5]: > 80%
mortality at 400 ppm [2]: > 80%
mortality at 400 ppm [3]: > 80%
mortality at 400 ppm [10]: > 80%

SMILES: CON1CCC2(CC1)NC(=O)C(Cl)(c1c(C)cc(Br)cc1Cl)C2=O (stereo not drawn) [A7, 3-(4-bromo-2-chloro-6-methyl-phenyl)-3-chloro-8-methoxy-1,8-diaza-spiro[4.5]decane-2,4-dione]
damage to pepper plants (phytotoxicity, 0-100% rating scale) (pepper plants): ≤ 10%
mortality at 400 ppm [1]: > 80%
mortality at 400 ppm [5]: > 80%
mortality at 400 ppm [11]: > 80%
mortality at 200 ppm [12]: ≥ 80%
mortality at 400 ppm [2]: > 80%
mortality at 400 ppm [3]: > 80%
mortality at 400 ppm [10]: > 80%

SMILES: CON1CCC2(CC1)NC(=O)C(Cl)(c1c(C)cc(C)cc1C)C2=O (stereo not drawn) [A14]
mortality at 400 ppm [1]: > 80%
mortality at 400 ppm [5]: > 80%
mortality at 400 ppm [11]: > 80%
mortality at 400 ppm [2]: > 80%
mortality at 400 ppm [3]: > 80%
mortality at 400 ppm [10]: > 80%
mortality at 25 ppm [13]: > 80%

SMILES: CON1CCC2(CC1)NC(=O)C(Cl)(c1c(C)cccc1C)C2=O (stereo not drawn) [A8]
damage to pepper plants (phytotoxicity, 0-100% rating scale) (pepper plants): ≤ 10%
mortality at 400 ppm [1]: > 80%
mortality at 400 ppm [5]: > 80%
mortality at 400 ppm [11]: > 80%
mortality at 200 ppm [12]: ≥ 80%
mortality at 400 ppm [2]: > 80%
mortality at 400 ppm [3]: > 80%
mortality at 400 ppm [10]: > 80%
mortality at 25 ppm [13]: > 80%

SMILES: CON1CCC2(CC1)NC(=O)C(Cl)(c1c(C)cc(C)cc1Cl)C2=O (stereo not drawn) [A9]
mortality at 400 ppm [1]: > 80%
mortality at 400 ppm [5]: > 80%
mortality at 400 ppm [11]: > 80%
mortality at 400 ppm [2]: > 80%
mortality at 400 ppm [3]: > 80%
mortality at 400 ppm [10]: > 80%
mortality at 25 ppm [13]: > 80%

SMILES: CON1CCC2(CC1)NC(=O)C(Cl)(c1cc(C)c(C)cc1C)C2=O (stereo not drawn) [A13]
mortality at 400 ppm [4]: > 80%
damage to pepper plants (phytotoxicity, 0-100% rating scale) (pepper plants): ≤ 10%
mortality at 400 ppm [1]: > 80%
mortality at 400 ppm [5]: > 80%
mortality at 400 ppm [11]: > 80%
mortality at 200 ppm [12]: ≥ 80%
mortality at 400 ppm [2]: > 80%
mortality at 400 ppm [3]: > 80%
mortality at 400 ppm [10]: > 80%
mortality at 25 ppm [13]: > 80%

SMILES: CON1CCC2(CC1)NC(=O)C(Cl)(c1c(C)cc(Br)cc1C)C2=O (stereo not drawn) [A6]
mortality at 400 ppm [3]: > 80%

melting point: 136 °C (dec.)
SMILES: CON1CCC2(CC1)NC(=O)C(c1c(C)cc(C)cc1C)([N+](=O)[O-])C2=O (stereo not drawn) [A16, 8-methoxy-3-nitro-3-(2,4,6-trimethyl-phenyl)-1,8-diaza-spiro[4.5]decane-2,4-dione]

SMILES: CON1CCC2(CC1)NC(=O)C(F)(c1cc(C)ccc1C)C2=O (stereo not drawn) [A2, 3-(2,5-dimethyl-phenyl)-3-fluoro-8-methoxy-1,8-diaza-spiro[4.5]decane-2,4-dione]
mortality at 400 ppm [2]: > 80%
mortality at 400 ppm [3]: > 80%
mortality at 400 ppm [10]: > 80%

SMILES: CON1CCC2(CC1)NC(=O)C(Cl)(c1c(C)cc(Cl)cc1C)C2=O (stereo not drawn) [A5]
damage to pepper plants (phytotoxicity, 0-100% rating scale) (pepper plants): ≤ 10%
mortality at 400 ppm [1]: > 80%
mortality at 400 ppm [5]: > 80%
mortality at 200 ppm [12]: ≥ 80%
mortality at 400 ppm [2]: > 80%
mortality at 400 ppm [3]: > 80%

SMILES: CON1CCC2(CC1)NC(=O)C(Cl)(c1cc(C)c(C)cc1Cl)C2=O (stereo not drawn) [A12]
mortality at 400 ppm [4]: > 80%
mortality at 400 ppm [1]: > 80%
mortality at 400 ppm [5]: > 80%
mortality at 400 ppm [2]: > 80%
mortality at 400 ppm [3]: > 80%

SMILES: CON1CCC2(CC1)NC(=O)C(Cl)(c1ccc(Cl)cc1Cl)C2=O (stereo not drawn) [A3]
mortality at 400 ppm [1]: > 80%
mortality at 400 ppm [3]: > 80%
